Where two headings read alike, the source gives them in different places.
Assays:
[1] = Toxicity to KHYG-1 NK cells (Trypan blue exclusion); assay type: cell-based, human; details: human, KHYG-1 NK cells; 20 μM, 4 h exposure, viability after 24 h, Trypan blue, ± SEM
Procedure: The toxicity assay was carried out in exactly the same manner as the killing assay above, but instead of adding the labeled K562 target cells, 100 μL of RPMI 0.1% BSA was added. Cells were incubated for 4 h at 37 °C and then washed ×3 in RPMI + 0.1% BSA. […] Trypan blue was added to each well. Viable (clear) cells and total (clear + blue) cells were counted, and the percentage of viable cells was calculated compared to DMSO treated cell control (% viability).

[2] = target: T1, perforin produced by an intact NK cell line (KHYG-1) (Homo sapiens, UniProt P14222); assay: KHYG-1 cytotoxicity assay: perforin-induced lysis of K562 target cells co-incubated with KHYG-1 NK cells; assay type: cell-based; details: 20 μM, K562 targets, ± SEM
T1 construct: the perforin is delivered by a functional NK cell; endogenous in cells; host or cells: KHYG-1 NK cells (K562 target cells)
T1 sequence (P14222 22-555): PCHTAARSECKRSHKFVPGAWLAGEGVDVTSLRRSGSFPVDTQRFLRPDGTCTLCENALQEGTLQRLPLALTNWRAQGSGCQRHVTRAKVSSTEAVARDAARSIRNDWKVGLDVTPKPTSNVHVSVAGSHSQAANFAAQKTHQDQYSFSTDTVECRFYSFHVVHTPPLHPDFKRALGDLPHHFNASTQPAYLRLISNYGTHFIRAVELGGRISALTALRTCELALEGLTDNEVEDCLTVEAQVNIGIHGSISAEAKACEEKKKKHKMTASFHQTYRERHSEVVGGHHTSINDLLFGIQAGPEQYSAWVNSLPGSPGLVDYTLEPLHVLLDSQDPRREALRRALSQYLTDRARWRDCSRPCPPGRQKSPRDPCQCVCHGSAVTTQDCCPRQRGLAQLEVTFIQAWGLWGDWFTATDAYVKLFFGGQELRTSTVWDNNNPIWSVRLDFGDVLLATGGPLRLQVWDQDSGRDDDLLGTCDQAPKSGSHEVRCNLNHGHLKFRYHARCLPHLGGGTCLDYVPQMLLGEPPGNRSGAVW
Procedure: KHYG-1 cells were washed and resuspended in RPMI + 0.1% BSA at 4 × 10^5 cells/mL, and an amount of 50 μL of KHYG-1 cells was dispensed to each well of a 96-well V-bottom plate. RPMI (50 μL) + 0.1% BSA or 10% (final concentration) of serum was added to each well. Then test compounds were added to KHYG-1 cells at various concentrations up to 20 μM and incubated at room temperature for 20 min. 1 × 10^6 K562 target cells were labeled with 75 μCi ^51Cr in 200 μL of RPMI for 90 min at 37 °C. Cells were washed as described above and resuspended in 5 mL of RPMI + 0.1% BSA. […] The percentage of specific cytotoxicity was calculated using the following formula: [drawing 4] and expressed as the mean of triplicate assays ± standard error of the mean.

[3] = target: T2, purified recombinant perforin (Mus musculus, UniProt P10820); assay: cell-based; assay type: cell-based; details: lysis of Jurkat cells by purified recombinant perforin, 51Cr release, 0.1% BSA; average of at least three determinations; read-out: inhibition of Jurkat cell lysis, IC50
T2 sequence (P10820 21-554): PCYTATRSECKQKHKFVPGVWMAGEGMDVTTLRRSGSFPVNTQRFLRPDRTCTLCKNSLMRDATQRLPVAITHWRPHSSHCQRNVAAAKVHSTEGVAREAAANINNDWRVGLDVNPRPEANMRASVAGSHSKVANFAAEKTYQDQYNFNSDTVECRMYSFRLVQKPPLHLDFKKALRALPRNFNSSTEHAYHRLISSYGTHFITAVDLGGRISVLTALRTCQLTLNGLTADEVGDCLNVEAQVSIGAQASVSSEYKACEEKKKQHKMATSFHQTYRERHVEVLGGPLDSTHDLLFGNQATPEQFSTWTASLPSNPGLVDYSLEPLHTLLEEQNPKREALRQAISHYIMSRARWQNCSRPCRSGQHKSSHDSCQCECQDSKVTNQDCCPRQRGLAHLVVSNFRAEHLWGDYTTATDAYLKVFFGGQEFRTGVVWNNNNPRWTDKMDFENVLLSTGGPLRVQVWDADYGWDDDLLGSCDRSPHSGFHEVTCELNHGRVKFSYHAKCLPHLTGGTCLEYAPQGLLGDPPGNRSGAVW
Procedure: The ability of the compounds to inhibit the lysis of nucleated (Jurkat T lymphoma) cells in the presence of 0.1% BSA was measured by release of ^51Cr label. Jurkat target cells were labeled by incubation in medium with 100 μCi ^51Cr for 1 h. The cells were then washed three times to remove unincorporated isotope and resuspended at 1 × 10^5 cells per milliliter in RPMI buffer supplemented with 0.1% BSA. […] Each data point was performed in triplicate, and an IC50 was calculated from the range of concentrations described above.

[4] = Aqueous solubility of parent compound and sodium salt; details: aqueous medium (not further specified)
[5] = 10% mouse serum, read-out: KHYG-1 inhibition (% at 20 μM), 10% serum
[6] = no serum, vs untreated control, read-out: KHYG-1 inhibition (% at 20 μM), no serum

Row | SMILES | viability at 4 h, 20 µM [1] [%] | inhibition at 20 µM [2, 5] [%] | inhibition at 20 µM [2, 6] [%] | IC50 [3] [nM] | solubility [4] [µg/mL]
1 | O=C1NC(=S)N/C1=C/c1ccc(-c2ccc3c(c2)COC3=O)s1 [compound 4] | 88 ± 3 | 38.9 ± 3.5 | 53 ± 2.6 | 780 | 23
2 | O=C1NC(=S)N/C1=C/c1ccc(-c2ccc3c(c2)CNC3=O)s1 [compound 118] | 95 ± 3.5 | 55 ± 6.5 | 56 ± 7.2 | 2550 | 0.54
3 | CN1Cc2cc(-c3ccc(/C=C4/NC(=S)NC4=O)s3)ccc2C1=O [compound 119, (E,Z)-2-Methyl-5-(5-((5-oxo-2-thioxoimidazolidin-4-ylidene)methyl)thiophen-2-yl)isoindolin-1-one] | 28 ± 1.5 | 37 ± 2.4 | 42 ± 5.5 |  | 0.13
4 | O=C1NC(=S)N/C1=C/c1ccc(-c2ccc3c(c2)CN(CCO)C3=O)s1 [compound 125, (E,Z)-2-(2-Hydroxyethyl)-5-(5-((5-oxo-2-thioxoimidazolidin-4-ylidene)methyl)thiophen-2-yl)isoindolin-1-one] | 81 ± 0.5 | 24 ± 3.4 | 43 ± 5.8 | 780 | 43
5 | O=C1NC(=S)N/C1=C/c1ccc(-c2ccc3c(c2)CN(CCCO)C3=O)s1 [compound 126] | 90 ± 3 | 17 ± 3 | 48 ± 7.9 | 530 | 1.78
6 | CCOC(=O)N1Cc2cc(-c3ccc(/C=C4/NC(=S)NC4=O)s3)ccc2C1=O [compound 129] | 93 ± 4.1 | 35 ± 9.5 | 46 ± 5.9 | 550 | 0.18
7 | O=C1NC(=O)/C(=C\c2ccc(-c3ccc4c(c3)CNC4=O)s2)N1 [compound 136] | 93 ± 3 | 50 ± 7.1 | 49 ± 9.8 | 400 | 11.6
8 | O=C1NC(=S)N/C1=C/c1ccc(-c2ccc3c(c2)C(=O)NCC3)s1 [compound 168] | 87 ± 4.1 | 23 ± 7.1 | 51 ± 4 | 640 | 0.13
9 | O=C1NC(=S)N/C1=C/c1ccc(-c2ccc3c(c2)CNC3=O)cn1 [compound 207] | 92 ± 2.6 | 13 ± 3.8 | 43 ± 5.4 | 630 | 0.59
